Data from patent publication US8084649B2, “Herbicides” (Syngenta Crop Protection, inc., priority 2007, dated 2011).

Columns and labels:
Type in all cases: in vivo
[1] = system: Alopecurus myosuroides (ALOMY); assay: Post-emergence herbicidal activity, glasshouse pot test; settings: Alopecurus myosuroides, rate 125 g/ha, evaluated after 14 or 15 days, read-out: Post-emergence activity, ALOMY (100=total damage to plant; 0=no damage to plant)
Protocol: (§1) Monocotyledonous and dicotyledonous test plants were sown in sterilised standard soil in pots. After cultivation for one day (pre-emergence) or after 10 days cultivation (post-emergence) under controlled conditions in a glasshouse, the plants were sprayed with an aqueous spray solution derived from the formulation of the technical active ingredient in 0.6 ml acetone and 45 ml formulation solution containing 10.6% Emulsogen EL (Registry number 61791-12-6), 42.2% N-methylpyrrolidone, 42.2% dipropylene glycol monomethyl ether (Registry number 34590-94-8) and 0.2% X-77 (Registry number 11097-66-8). The test plants were then grown in a greenhouse under optimum conditions until, 14 or 15 days later for post-emergence and 20 days for pre-emergence, the test was evaluated (100=total damage to plant; 0=no damage to plant). Alopecurus myosuroides (ALOMY), Avena fatua (AVEFA), Lolium perenne (LOLPE), Setaria faberi (SETFA), Digitaria sanguinalis (DIGSA), Echinochloa crus-galli (ECHCG) Post-Emergence Activity

Setaria faberi (SETFA) [2] = assay: as above; settings: Setaria faberi, rate 125 g/ha, evaluated after 14 or 15 days, read-out: Post-emergence activity, SETFA (100=total damage to plant; 0=no damage to plant)
Protocol: as §1

[3] = system: Digitaria sanguinalis (DIGSA); assay: as above; settings: Digitaria sanguinalis, rate 125 g/ha, evaluated after 14 or 15 days, read-out: Post-emergence activity, DIGSA (100=total damage to plant; 0=no damage to plant)
Protocol: as §1

Avena fatua (AVEFA) [4] = assay: as above; settings: Avena fatua, rate 125 g/ha, evaluated after 14 or 15 days, read-out: Post-emergence activity, AVEFA (100=total damage to plant; 0=no damage to plant)
Protocol: as §1

Lolium perenne (LOLPE) [5] = assay: as above; settings: Lolium perenne, rate 125 g/ha, evaluated after 14 or 15 days, read-out: Post-emergence activity, LOLPE (100=total damage to plant; 0=no damage to plant)
Protocol: as §1

[6] = system: Echinochloa crus-galli (ECHCG); assay: as above; settings: Echinochloa crus-galli, rate 125 g/ha, evaluated after 14 or 15 days, read-out: Post-emergence activity, ECHCG (100=total damage to plant; 0=no damage to plant)
Protocol: as §1

[7] = system: Alopecurus myosuroides (ALOMY); assay: Pre-emergence herbicidal activity, glasshouse pot test; settings: Alopecurus myosuroides, 480 h, rate 500 g/ha, evaluated after 20 days, read-out: Pre-emergence activity, ALOMY (100=total damage to plant; 0=no damage to plant)
Protocol: as §1, with “Pre-Emergence” for “Post-Emergence”

Setaria faberi (SETFA) [8] = assay: as above; settings: Setaria faberi, 480 h, rate 500 g/ha, evaluated after 20 days, read-out: Pre-emergence activity, SETFA (100=total damage to plant; 0=no damage to plant)
Protocol: as §1, with “Pre-Emergence” for “Post-Emergence”

[9] = system: Digitaria sanguinalis (DIGSA); assay: as above; settings: Digitaria sanguinalis, 480 h, rate 500 g/ha, evaluated after 20 days, read-out: Pre-emergence activity, DIGSA (100=total damage to plant; 0=no damage to plant)
Protocol: as §1, with “Pre-Emergence” for “Post-Emergence”

Avena fatua (AVEFA) [10] = assay: as above; settings: Avena fatua, 480 h, rate 500 g/ha, evaluated after 20 days, read-out: Pre-emergence activity, AVEFA (100=total damage to plant; 0=no damage to plant)
Protocol: as §1, with “Pre-Emergence” for “Post-Emergence”

Lolium perenne (LOLPE) [11] = assay: as above; settings: Lolium perenne, 480 h, rate 500 g/ha, evaluated after 20 days, read-out: Pre-emergence activity, LOLPE (100=total damage to plant; 0=no damage to plant)
Protocol: as §1, with “Pre-Emergence” for “Post-Emergence”

[12] = system: Echinochloa crus-galli (ECHCG); assay: as above; settings: Echinochloa crus-galli, 480 h, rate 500 g/ha, evaluated after 20 days, read-out: Pre-emergence activity, ECHCG (100=total damage to plant; 0=no damage to plant)
Protocol: as §1, with “Pre-Emergence” for “Post-Emergence”

Row | SMILES | pest or weed control at 125 g/ha [1] [%] | pest or weed control at 125 g/ha (Setaria faberi (SETFA) [2]) [%] | pest or weed control at 125 g/ha [3] [%] | pest or weed control at 125 g/ha (Avena fatua (AVEFA) [4]) [%] | pest or weed control at 125 g/ha (Lolium perenne (LOLPE) [5]) [%] | pest or weed control at 125 g/ha [6] [%] | pest or weed control at 500 g/ha [7] [%] | pest or weed control at 500 g/ha (Setaria faberi (SETFA) [8]) [%] | pest or weed control at 500 g/ha [9] [%] | pest or weed control at 500 g/ha (Avena fatua (AVEFA) [10]) [%] | pest or weed control at 500 g/ha (Lolium perenne (LOLPE) [11]) [%] | pest or weed control at 500 g/ha [12] [%]
1 | CCc1cc(C)cc(CC)c1C1=C(OC(=O)CC2CCCC2)CC2(CCOCC2)CC1=O [Compound P11] | 90 | 70 | 70 | 100 | 90 | 70 | 100 | 100 | 100 | 90 | 90 | 90
2 | CCc1cc(C)cc(CC)c1C1=C(OC(=O)C2CCCCC2)CC2(CCOCC2)CC1=O [Compound P12] | 80 | 90 | 90 | 90 | 100 | 100 | 100 | 100 | 100 | 100 | 100 | 100
3 | CCc1cc(C)cc(CC)c1C1=C(OC(=O)C(C)CC)CC2(CCOCC2)CC1=O (stereo not drawn) [Compound P13] | 90 | 90 | 100 | 100 | 90 | 100 | 100 | 100 | 100 | 100 | 100 | 100
4 | CCc1cc(C)cc(CC)c1C1=C(OC(=O)C(CC)CC)CC2(CCOCC2)CC1=O [Compound P14] | 80 | 60 | 70 | 80 | 80 | 60 | 100 | 100 | 100 | 100 | 100 | 90
5 | CCOC(=O)OC1=C(c2c(CC)cc(C)cc2CC)C(=O)CC2(CCOCC2)C1 [Compound P16] | 100 | 70 | 100 | 90 | 100 | 100 | 100 | 100 | 100 | 100 | 100 | 100
6 | CCc1cc(C)cc(CC)c1C1=C(OC(=O)OCc2ccccc2)CC2(CCOCC2)CC1=O [Compound P17] | 90 | 70 | 70 | 80 | 80 | 70 | 100 | 100 | 100 | 100 | 100 | 100
7 | CCc1cc(C)cc(CC)c1C1=C(OC(=O)Oc2ccccc2)CC2(CCOCC2)CC1=O [Compound P18] | 80 | 50 | 70 | 100 | 90 | 100 | 100 | 100 | 100 | 100 | 100 | 80
8 | CCc1cc(C)cc(CC)c1C1=C(OC(=O)OCC(C)(C)C)CC2(CCOCC2)CC1=O [Compound P19] | 90 | 70 | 70 | 90 | 90 | 100 | 100 | 100 | 100 | 100 | 100 | 100
9 | CCc1cc(C)cc(CC)c1C1=C(OC(=O)OCC(C)C)CC2(CCOCC2)CC1=O [Compound P20] | 90 | 70 | 70 | 100 | 90 | 100 | 100 | 100 | 100 | 100 | 100 | 100
10 | C=CCOC(=O)OC1=C(c2c(CC)cc(C)cc2CC)C(=O)CC2(CCOCC2)C1 [Compound P21] | 100 | 90 | 100 | 100 | 90 | 100 | 100 | 100 | 100 | 100 | 100 | 100
11 | C#CCOC(=O)OC1=C(c2c(CC)cc(C)cc2CC)C(=O)CC2(CCOCC2)C1 [Compound P22] | 90 | 90 | 100 | 100 | 90 | 90 | 100 | 100 | 100 | 100 | 100 | 100
12 | CCc1cc(C)cc(CC)c1C1=C(OS(C)(=O)=O)CC2(CCOCC2)CC1=O [Compound P24] | 0 | 0 | 0 | 0 | 0 | 0 | 80 | 90 | 70 | 80 | 80 | 50
